Where two headings read alike, the source gives them in different places.
Experiments:
[1] = human, cited from earlier work; for Rb_Human: blood-to-plasma concentration ratio, median if multiple values reported, Reference of Table S1
[2] = cited from earlier work
[3] = human, cited from earlier work
[4] = human
plasma protein = conditions: cited from earlier work; for fp_Human (free fraction in plasma): human
[5] = median if multiple values were reported, ref numbers in Table S1
[6] = human, intravenous, median if multiple values were reported, ref numbers in Table S1
[7] = intravenous, median if multiple values were reported, ref numbers in Table S1
[8] = collected value, median if multiple values were reported, ref: Table S1
[9] = intravenous, median if multiple values reported, Reference of Table S1
[10] = free fraction in human plasma, median if multiple values reported, Reference of Table S1
[11] = human, intravenous, median if multiple values reported, Reference of Table S1

Molecule | Rb_Human (blood-to-plasma concentration ratio) [1, 5] | in vivo CL_(L/hr/kg)_Human [2, 6] | in vivo Vd_(L/kg)_Human [3, 7] | in vivo MRT_(hr)_Human [4] | fp_Human (free fraction in plasma) (plasma protein; [8]) | Rb_Human [1] | in vivo Vd_(L/kg)_Human [3, 9] | fp_Human (plasma protein; [10]) | in vivo CL_(L/hr/kg)_Human [2, 11] | other results
CC(C)NCC(O)COc1ccc(CCOCC2CC2)cc1 (stereo not shown) [Betaxolol] | 0.79 | 0.204 L/h/kg | 4.800 L/kg | 23.529 h | 0.495 | – | – | – | – | –
CC[C@H](C)C[C@H](C)CCCCCCCCC(=O)N[C@H]1C[C@@H](O)[C@@H](NCCN)NC(=O)[C@@H]2[C@@H](O)CCN2C(=O)[C@H]([C@H](O)CCN)NC(=O)[C@H]([C@H](O)[C@@H](O)c2ccc(O)cc2)NC(=O)[C@@H]2C[C@@H](O)CN2C(=O)[C@H]([C@@H](C)O)NC1=O [Caspofungin] | – | – | – | 15.476 h | – | – | – | – | – | Rb_Human (blood-to-plasma concentration ratio) ([1]; plasma): 0.74; in vivo CL_(L/hr/kg)_Human ([2]; in vivo, iv): 0.008 L/h/kg; in vivo Vd_(L/kg)_Human ([3]; in vivo, iv): 0.130 L/kg; fp_Human (free fraction in plasma) (plasma protein; plasma): 0.035
CO[C@@]1(NC(=O)C2SC(=C(C(N)=O)C(=O)O)S2)C(=O)N2C(C(=O)O)=C(CSc3nnnn3C)CS[C@@H]21 (stereo partly shown) [Cefotetan] | 0.65 | 0.025 L/h/kg | 0.130 L/kg | 5.159 h | 0.150 | – | – | – | – | –
CC(C)(O/N=C(\C(=O)N[C@@H]1C(=O)N2C(C(=O)[O-])=C(C[n+]3ccccc3)CS[C@H]12)c1csc(N)n1)C(=O)O [Ceftazidime] | 0.72 | 0.144 L/h/kg | 0.310 L/kg | 2.153 h | 0.790 | – | – | – | – | –
CN(C)CCC(c1ccc(Cl)cc1)c1ccccn1 (stereo not shown) [Chlorpheniramine] | 1.34 | 0.150 L/h/kg | 3.300 L/kg | 22.000 h | 0.280 | – | – | – | – | –
Clc1cccc(Cl)c1N=C1NCCN1 [Clonidine] | 1.04 | 0.213 L/h/kg | 3.300 L/kg | 13.750 h | 0.560 | – | – | – | – | –
OCCN1CCN(CCCN2c3ccccc3Sc3ccc(C(F)(F)F)cc32)CC1 [Fluphenazine] | 0.69 | 0.591 L/h/kg | 2.900 L/kg | 4.983 h | 0.040 | – | – | – | – | –
C[C@@H]1C[C@H]2[C@@H]3C[C@H](F)C4=CC(=O)C=C[C@]4(C)[C@@]3(F)[C@@H](O)C[C@]2(C)[C@@]1(O)C(=O)SCF [Fluticasone] | 0.60 | 1.020 L/h/kg | 3.600 L/kg | 3.529 h | 0.100 | – | – | – | – | –
CCCCC1=NC2(CCCC2)C(=O)N1Cc1ccc(-c2ccccc2-c2nnn[nH]2)cc1 [Irbesartan] | 0.60 | 0.133 L/h/kg | 0.940 L/kg | 6.812 h | 0.100 | – | – | – | – | –
CNCCCC12CCC(c3ccccc31)c1ccccc12 [Maprotiline] | 1.70 | 0.840 L/h/kg | 45.000 L/kg | 53.571 h | 0.115 | – | – | – | – | –
N[C@@H](Cc1ccc(N(CCCl)CCCl)cc1)C(=O)O [Melphalan] | – | 0.366 L/h/kg | – | 1.143 h | 0.120 | – | – | – | – | Rb_Human (blood-to-plasma concentration ratio) ([1]; plasma): 0.96; in vivo Vd_(L/kg)_Human ([3]; in vivo, iv): 0.480 L/kg
CCOC(=O)C1(c2ccccc2)CCN(C)CC1 [Meperidine] | 1.01 | 1.020 L/h/kg | 3.350 L/kg | 11.395 h | 0.380 | – | – | – | – | –
Cc1cccc(C)c1OCC(C)N (stereo not shown) [Mexiletine] | 1.12 | 0.498 L/h/kg | 5.900 L/kg | 11.847 h | 0.350 | – | – | – | – | –
Cc1ncc2n1-c1ccc(Cl)cc1C(c1ccccc1F)=NC2 [Midazolam] | 0.68 | 0.318 L/h/kg | – | 3.459 h | 0.030 | – | – | – | – | in vivo Vd_(L/kg)_Human ([3]; in vivo, iv): 1.100 L/kg; fp_Human (plasma protein): 0.030
CC(C)=CCN1CCC2(C)c3cc(O)ccc3CC1C2C (stereo not shown) [Pentazocine] | 1.07 | 1.380 L/h/kg | – | 2.464 h | 0.380 | – | – | – | – | in vivo Vd_(L/kg)_Human ([3]; in vivo, iv): 3.400 L/kg
CCOc1ccc(NC(C)=O)cc1 [Phenacetin] | – | – | – | 1.111 h | – | 1.01 | 1.400 L/kg | 0.470 | – | –
CC(C)NCC(O)COc1cccc2[nH]ccc12 (stereo not shown) [Pindolol] | – | – | – | 2.597 h | – | 0.69 | 1.200 L/kg | 0.580 | – | –

Molecule | Rb_Human (blood-to-plasma concentration ratio) [1, 5] | in vivo CL_(L/hr/kg)_Human [2, 6] | in vivo Vd_(L/kg)_Human [3, 7] | in vivo MRT_(hr)_Human [4] | fp_Human (free fraction in plasma) (plasma protein; [8]) | Rb_Human [1] | in vivo Vd_(L/kg)_Human [3, 9] | fp_Human (plasma protein; [10]) | in vivo CL_(L/hr/kg)_Human [2, 11] | other results
CCCNC(C)C(=O)Nc1ccccc1C (stereo not shown) [Prilocaine] | – | – | – | 2.126 h | – | 1.25 | 3.700 L/kg | 0.665 | 1.740 L/h/kg | –
CNC(=C[N+](=O)[O-])NCCSCc1ccc(CN(C)C)o1 [Ranitidine] | – | – | – | 2.083 h | – | 1.00 | 1.200 L/kg | 0.900 | – | –
CO[C@H]1/C=C/O[C@@]2(C)Oc3c(C)c(O)c4c(c3C2=O)C2=NC3(CCN(CC(C)C)CC3)NC2=C(NC(=O)/C(C)=C\C=C\[C@H](C)[C@H](O)[C@@H](C)[C@@H](O)[C@@H](C)[C@H](OC(C)=O)[C@@H]1C)C4=O [Rifabutin] | – | – | – | 64.583 h | – | 0.59 | 9.300 L/kg | 0.290 | 0.144 L/h/kg | –
CN(C)CCc1c[nH]c2ccc(Cn3cncn3)cc12 [Rizatriptan] | – | – | – | 1.979 h | – | 1.04 | 1.900 L/kg | 0.860 | 0.960 L/h/kg | –
C=CC[N+]1([C@H]2C[C@H]3[C@@H]4CC[C@H]5C[C@H](O)[C@@H](N6CCOCC6)C[C@]5(C)[C@H]4CC[C@]3(C)[C@H]2OC(C)=O)CCCC1 [Rocuronium] | – | – | – | 0.946 h | – | 1.00 | 0.210 L/kg | 0.540 | 0.239 L/h/kg | –
CC(C)NCC(O)c1ccc(NS(C)(=O)=O)cc1 (stereo not shown) [Sotalol] | – | – | – | 10.833 h | – | 1.07 | 1.300 L/kg | 0.810 | – | –
C[C@H](Cn1cnc2c(N)ncnc21)OCP(=O)(O)O [Tenofovir] | – | – | – | – | – | 1.05 | 0.830 L/kg | 0.930 | 0.186 L/h/kg | –
COc1ccccc1Oc1c(NS(=O)(=O)c2ccc(C(C)C)cn2)nc(-c2ccnc(-c3nnn[nH]3)c2)nc1OCCO [Tezosentan] | – | – | – | – | – | 0.60 | 0.280 L/kg | 0.0085 | 0.486 L/h/kg | –
CC(C)(C)NC[C@H](O)COc1nsnc1N1CCOCC1 [Timolol] | – | – | – | – | – | 0.84 | 1.500 L/kg | 0.491 | 0.462 L/h/kg | –
Nc1nc(N)c2nc(-c3ccccc3)c(N)nc2n1 [Triamterene] | – | – | – | – | – | 1.03 | 13.000 L/kg | 0.420 | 3.780 L/h/kg | –
COc1cc(Cc2cnc(N)nc2N)cc(OC)c1OC [Trimethoprim] | – | – | – | 11.905 h | – | 1.03 | 1.500 L/kg | 0.500 | – | –
Cc1c(C)c2c(c(C)c1O)CCC(C)(COc1ccc(CC3SC(=O)NC3=O)cc1)O2 (stereo not shown) [Troglitazone] | – | – | – | – | – | 0.55 | 0.710 L/kg | 0.00347 | 0.210 L/h/kg | –
CCCC(CCC)C(=O)O [Valproic Acid] | – | – | – | – | – | 0.64 | 0.145 L/kg | 0.091 | 0.008 L/h/kg | –
O=C1Cc2cc(CCN3CCN(c4nsc5ccccc45)CC3)c(Cl)cc2N1 [Ziprasidone] | – | – | – | – | – | 0.81 | 1.000 L/kg | 0.0012 | 0.504 L/h/kg | –
O=P(O)(O)C(O)(Cn1ccnc1)P(=O)(O)O [Zoledronic Acid] | – | – | – | – | – | 0.59 | 0.600 L/kg | 0.780 | 0.132 L/h/kg | –
Oc1ccc2c(c1)[C@@]13CCCC[C@@]1(O)[C@@H](C2)N(CC1CCC1)CC3 [butorphanol, reference compound] | – | 2.460 L/h/kg | – | – | 0.170 | – | – | – | – | Rb_Human (blood-to-plasma concentration ratio) ([1]; plasma): 1.90; in vivo Vd_(L/kg)_Human ([3]; in vivo, iv): 12.000 L/kg
Isosorbide mononitrate | – | 0.102 L/h/kg | – | – | 0.850 | – | – | – | – | Rb_Human (blood-to-plasma concentration ratio) ([1]; plasma): 1.00; in vivo Vd_(L/kg)_Human ([3]; in vivo, iv): 0.600 L/kg; fp_Human (plasma protein; human plasma free fraction, median if multiple values were reported, ref numbers in Table S1): 0.850
